Measurements reported in patent US8138205B2, “Heteroarylalkoxy-substituted quinolone inhibitors of PDE4” (Kalypsys, Inc., priority 2006, dated 2012).

Assays:
Solubility Protocol = type: physicochemical; details: aqueous buffer, thermodynamic from solid; pH 7.4, 0.1 M sodium phosphate buffer
Procedure: About 5 mg of a compound was mixed with 500 μL of pH 7.4, 0.1 M sodium phosphate buffer. The mixture was adjusted to the original pH of 7.4 and then mixed overnight or longer via rotary mixing. The sample was checked for pH and then filtered through a 0.45 μm filter. If the pH drifted away, the sample was adjusted to its original pH and mixed for at least 15 minutes before filtration. The filtrate was analyzed using HPLC.

Stability Protocol = type: physicochemical; details: pH 7.4 sodium phosphate buffer, preliminary shelf life (T90) estimated from stressed samples
Procedure: About 3 mg of a compound was dissolved in 3 mL of acetonitrile/water mixture (50/50). 100 μL of the stock solution was added to 20 mL each of 0.025 M pH 5.0 sodium acetate buffer (A5.0), 0.025 M pH 5.0 citrate buffer (C5.0) and 0.025 M pH 7.4 sodium phosphate buffer (P7.4). A two mL aliquot of each solution was kept in a glass vial equipped a cap lined with Teflon. Two vials containing the solution were stored at 4° C. or −20° C. as control. Other aliquots were stressed at RT, 45° C. or 75° C. for specified time check points, e.g. 1 day, 1 w, 2 w, 4 w, 8 w,12 w. The stressed samples in duplicate were assayed against the control using HPLC. The results were reported in % degradation. Preliminary shelf life (T90) was estimated assuming the rate of chemical degradation is double when the temperature is up 10° C.

Rabbits = assay: Lacrimal Gland Inflammation-Induced Dry Eye in Rabbits (corneal staining, tear breakup time); type: in vivo; details: topical ocular BID, rabbit ConA dry eye
Source text: A more detailed description of the assay used herein may be found in Naglehout, T J et al. 2005, “Preservation of Tear Film Integrity and Inhibition of Corneal Injury by Dexamethasone in a Rabbit Model of Lacrimal Gland Inflammation-Induced Dry Eye,” J. Ocular Pharm. Ther., 21:2. 139-148, the disclosure of which is hereby incorporated by reference as if written herein in its entirety.
Rabbits (n=4/group) were randomized into treatment groups and dosed topically BID with maxidex vehicle or test drug beginning one day prior to initiation of dry eye. Each rabbit received bilateral lacrimal gland injections of saline or ConA (300 μg/30 μl) and topical ocular dosing was continued BID throughout the study.
Desiccation was initiated 1-2 hours following lacrimal gland injection by placing conscious rabbits in the environmental chamber (10-15% humidity/72° F.). Following 72 consecutive hours of exposure to this dry environment, the animals were anesthetized and sutures were placed in each upper and lower eyelid and lifted to form a corneal/conjunctival cup. Methylene blue dye (1 mL, 1% in dH2O) was added to the cup for three minutes and the excess removed by washing with 200 mL BSS®. The contralateral eye was then stained using the same procedure. Rabbits were euthanized immediately following the staining procedure and the eyes were excised. The corneas were isolated with a trephine and the 9.5-mm punch of the cornea was placed in 2 mL acetone/saturated sodium sulfate (7:3, vol./vol.). Absorbance of the extracted dye was determined at 660 nm.
TBUT was quantified in a separate group of treated animals. TBUT was determined by instilling 5 μL sodium fluorescein into the cul de sac and manually blinking the lids to distribute the fluorescein within the tear film. Under slit lamp observation, the eye was held open and the time whereby one or more black spots or streaks appeared in the precorneal tear film was recorded. The rabbits were euthanized 3 days following ConA injection.

SMILES	solubility (Solubility Protocol) [µg/mL]	Stability, pH 7.4 (Stability Protocol)	Activity at Percent Concentration Tested (Rabbits; 1 percent)	Activity at Percent Concentration Tested (Rabbits; 1 × 10^−1 percent)	Activity at Percent Concentration Tested (Rabbits; 1 × 10^−2 percent)	Activity at Percent Concentration Tested (Rabbits; 1 × 10^−4 percent)	Activity at Percent Concentration Tested (Rabbits; 1 × 10^−6 percent)
COc1ccc2c(Nc3c(Cl)cncc3Cl)cc(=O)[nH]c2c1OC1CCCC1 [Example 1, 8-(Cyclopentyloxy)-4-(3,5-dichloropyridin-4-ylamino)-7-methoxyquinolin-2(1H)-one]	≥ 1000	+ (+ indicates ≧1 Year)	Inactive	Inactive	Inactive	–	–
COc1ccc2c(Nc3c(C)cncc3C)cc(=O)[nH]c2c1OC1CCCC1 [Example 5, 8-(Cyclopentyloxy)-4-(3,5-dimethylpyridin-4-ylamino)-7-methoxyquinolin-2(1H)-one]	≥ 1000	+ (+ indicates ≧1 Year)	–	–	Inactive	Inactive	Inactive
